The source of these data is US7820656B2, “Pharmaceutical composition comprising N-aryl N′ morpholino/piperidino thiocarbamide derivatives for treating type II diabetes” (priority 2004, dated 2010).

For data set [1], the system named is RAW 264.7 cells. The data set can be described thus: Measurement of anti-inflammatory action (nitrites, Griess reaction, LPS-stimulated). The class given is cell-based. To be noted: for Produced nitrites: 15 hours, control 3.3435, LPS 6.2775. As for the experimental part:
Nitrites accumulated in a cellular medium were measured as a marker of […] (NO) formation through a Griess reaction. RAW 264.7 cells were cultured in a medium containing DMEM, 10% FBS, penicillin (100 units/ml) and streptomycin sulfate (100 μg/ml) in a presence of 5% CO2, treated with N-aryl N′ morpholino/piperidino thiocarbamide derivatives in a content of 10 μg/ml and 100 μg/ml in a presence of LPS (1 μg/ml), followed by adding a Griess reagent 100 μl to the medium 100 μl 15 hours later to be cultured at room temperature for 10 minutes and measuring an absorbance at 540 nm. Nitrite content in a medium was evaluated by a standard curve using NaNO2.
A general note: Griess reagent forms a coloured azo dye with nitrite.

Data set [2] concerns HepG2 cells. In words: Measurement of lipid peroxide (TBARS). The class given is cell-based. As to conditions: for Average content of TBARS (%): control 100.0; for decrease of TBARS content compared with control group: HepG2, 24 hours (FIG. 4). As for the experimental part:
HepG2 cells were cultured to administer N(4′-chlorophenyl) N′ morpholino thiocarbamide (10 μg/ml-100 μg/ml). After 24 hours, a cellular culture solution was removed to wash HepG2 cells with a phosphate buffer solution (PBS), prior to adding 0.1% Triton X-100 to detach the cells. The separated cell extracts were mixed with 20% acetic acid, pH 3.5 and 0.78% aqueous thiobarbituric acid solution. The mixture was heated at 95° C. for 1 hour and centrifuged at 3000 rpm for 15 minutes. The absorbance of the red supernatant was measured at 532 nm (Anal Biochem, 1979, 95, 351-358).

The test system of data set [3] is HepG2 hepatocyte. The data set can be described thus: Measurement of glycogenesis ability (glycogen content, absorbance at 490 nm). The class given is cell-based. To be noted: for Glycogenesis (absorbance): absorbance at 490 nm, control 0.103; for Rate of Increase(%) of glycogenesis: versus control. The method, then: Thereto, ethanol was added to precipitate glycogen, followed by dissolving the precipitated glycogen in conc. sulfuric acid. Glucose produced was reacted with phenol to obtain a stained product. An absorbance of the stained product was measured at 490 nm (J Applied Physiol, 1970, 28, 234-236).

In data set [4] the target is T1, insulin receptor (Mus musculus, UniProt P15208).
T1 construct: the mouse was dissected to separate a liver at 4° C; from tissue; host or cells: mouse liver (hepatic lysate)
T1 sequence (P15208 28-748 limits assumed): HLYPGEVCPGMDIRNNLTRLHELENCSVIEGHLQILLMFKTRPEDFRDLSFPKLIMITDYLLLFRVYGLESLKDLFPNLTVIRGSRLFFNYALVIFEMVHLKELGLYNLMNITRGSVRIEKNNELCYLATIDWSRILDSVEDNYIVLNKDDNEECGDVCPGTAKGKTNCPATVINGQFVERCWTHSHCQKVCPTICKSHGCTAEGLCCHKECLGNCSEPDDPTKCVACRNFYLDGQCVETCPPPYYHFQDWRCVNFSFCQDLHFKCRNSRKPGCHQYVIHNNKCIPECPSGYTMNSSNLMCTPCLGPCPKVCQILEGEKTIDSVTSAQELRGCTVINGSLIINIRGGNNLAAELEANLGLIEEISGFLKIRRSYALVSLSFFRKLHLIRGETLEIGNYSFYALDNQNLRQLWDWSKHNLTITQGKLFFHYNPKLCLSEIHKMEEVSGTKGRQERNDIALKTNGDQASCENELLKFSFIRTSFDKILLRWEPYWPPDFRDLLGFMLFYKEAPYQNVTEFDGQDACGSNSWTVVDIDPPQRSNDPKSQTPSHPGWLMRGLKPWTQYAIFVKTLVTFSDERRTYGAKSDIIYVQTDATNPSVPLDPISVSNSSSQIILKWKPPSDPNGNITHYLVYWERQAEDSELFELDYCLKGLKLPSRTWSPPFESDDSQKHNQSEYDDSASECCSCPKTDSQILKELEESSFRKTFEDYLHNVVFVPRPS
The data set can be described thus: Phosphorylation measurement of insulin receptor tyrosin residues (hepatic lysate, immunoprecipitation, western blot). As to conditions: 80 mg/kg to mouse starved 16 hours, liver after 1 hour; compared with control (FIG. 5). In kind it is in vivo. The method, then:
N(4′-chlorophenyl) N′ morpholino thiocarbamide in a dose of 80 mg/kg was administered to a male IC mouse starved for 16 hours. After an hour passed, the mouse was dissected to separate a liver at 4° C. Hepatic homogenization was provided by a little modification of conventional method (Zhao, H., Xu, H., Moore, E., Meiri, N., Quon, M. J., Alkon, D., L., Insulin receptors and spatial memory. J. Biol. Chem. 274, 34893-34902, 1999). The separated liver was suspended in a buffer A containing 50 mM Tris HCl, pH 7.4, 1 mM EDTA, 1 mM EGTA, 150 mM NaCl, 1% Triton X-100, 0.5 mM PMSF, 1 mM Na3VO4, leupeptin and aprotinin 1 μg/ml, and homogenized using a Potter-Elvehjem homogenizer. The lysate was centrifuged at 10,000×g for 20 minutes. The supernatant was analyzed on proteins and preserved at −70° C.
An immunoprecipitation was carried out by a known technique (Kim S. J., Kahn, C. R. Insulin stimulates phosphorylation of c-Jun, c-Fos and Fos-related proteins in cultured adipocytes. J. Biol. Chem. 269, 11887-11892, 1994). An equal amount of proteins from hepatic lysate were cultured with an insulin receptor antibody at 4° C. for 1 hour, followed by thereto adding protein A-cephalos to precipitate the immune complex by a centrifuge. […]
(In general: Immunoblotting shows a protein as a band on a membrane.)

A short description of data set [5]: Measurement of body weight. In kind it is in vivo. As to conditions: 80 mg/kg oral once a day for 3 consecutive weeks; administered group vs control (FIG. 6). The method, then: Change of body weight was measured every week before and after N(4′-chlorophenyl) N′ morpholino thiocarbamide (80 mg/kg, PO) was administered.
The subject of data set [6] is streptozotocin-induced diabetic mouse. The data set can be described thus: Blood glucose lowering effect using a streptozotocin-induced diabetic mouse. The class given is in vivo. To be noted: 80 mg/kg oral a day, 5 days a week, 3 consecutive weeks; STZ control almost 550 mg/dl (FIG. 2). The method, then: A mouse was used two weeks after streptozotocin (50 mM citrate buffer, pH 4.5) was intraperitoneally administered to the mouse (J Gene Med. 2003, 5, 417-424). […] Change of blood glucose level was measured once a week.

Data set [7] deals with mice. In words: Measurement of lethal dose 50%. In kind it is in vivo, mouse. To be noted: oral, 50 mg/kg, 500 mg/kg and 5000 mg/kg, 10 mice per dose. The method, then: (§1) The number of dead animal was counted after N(4′-chlorophenyl) N′ morpholino thiocarbamide was orally administered to 10 mice per a dose in a dose of 50 mg/kg, 500 mg/kg, and 5000 mg/kg.
Data set [8] in a line: Measurement of lethal dose 50%. The class given is in vivo, mouse. As to conditions: mouse, in vivo; oral, mice. The method, then:
as §1

In data set [9] the test system is mouse. In words: Oral glucose tolerance test. The class given is in vivo. To be noted: 80 mg/kg oral 1 h before glucose 2 g/kg oral; blood glucose at 30, 60, 120 min; compared with control (FIG. 1). As for the experimental part: A mouse was starved for 18 hours, prior to orally administering N(4′-chlorophenyl) N′ morpholino thiocarbamide to the mouse in a dose of 80 mg/kg. After an hour passed, Glucose of 2 g/kg was orally administered to measure blood glucose level in 30, 60, and 120 minutes using a blood glucose testing kit.

Setting [10] is: Dosage 10 ug/ml with LPS 1 μg/ml.
The mark [11] stands for this setting: Dosage 100 ug/ml with LPS 1 μg/ml.

With `S=C(Nc1ccccc1)NN1CCCCC1` [phenyl (C12H17N3S)], the “% (produced nitrites; control 0, LPS 100)” value in data set [1] (setting [10]) is given as 75.26%; in [1] (setting [11]), 74.20%. Besides, the results for the “Produced nitrites” value in [1] (setting [10]) and in data set [1] (setting [11]) were 5.5515 µM and 5.5205 µM, respectively. In addition, the “Average content of TBARS (%)” value stood at 61.4% in data set [2] (Dosage 10 μg/ml) and 65.1% in data set [2] (Dosage 100 μg/ml). The results for the “Glycogenesis (absorbance)” value in data set [3] (Dosage 10 μg/ml) and in data set [3] (Dosage 100 μg/ml) were 0.196 and 0.161, respectively. The “Rate of Increase(%) of glycogenesis” value in data set [3] (Dosage 10 μg/ml) was 90%; in [3] (Dosage 100 μg/ml), 56%.
Regarding `COc1cccc(NC(=S)NN2CCOCC2)c1` [3-methoxyphenyl], the “% (produced nitrites; control 0, LPS 100)” value stood at 81.19% in data set [1] (setting [10]) and 56.99% in data set [1] (setting [11]). The “Produced nitrites” value was 5.7255 µM in data set [1] (setting [10]) and 5.0155 µM in [1] (setting [11]). Also, the entries for the “Average content of TBARS (%)” value in data set [2] (Dosage 10 μg/ml) and in data set [2] (Dosage 100 μg/ml) were 81.9% and 63.9%, respectively. Further, the “Glycogenesis (absorbance)” value in data set [3] (Dosage 10 μg/ml) is given as 0.191; in data set [3] (Dosage 100 μg/ml), 0.202. The “Rate of Increase(%) of glycogenesis” value in [3] (Dosage 10 μg/ml) is on record as 85%; in data set [3] (Dosage 100 μg/ml) it was 96%.
On to `Cc1cccc(NC(=S)NN2CCOCC2)c1` [3-methylphenyl], for which the “% (produced nitrites; control 0, LPS 100)” value in [1] (setting [10]) worked out at 81.19%; in data set [1] (setting [11]), 61.83%. Also, the “Produced nitrites” value came to 5.7255 µM in data set [1] (setting [10]) and 5.1575 µM in data set [1] (setting [11]). The “Average content of TBARS (%)” value amounted to 67.5% in [2] (Dosage 10 μg/ml) and 66.3% in data set [2] (Dosage 100 μg/ml). Besides, the “Glycogenesis (absorbance)” value in [3] (Dosage 10 μg/ml) was found to be 0.189; in data set [3] (Dosage 100 μg/ml), 0.325. The figures for the “Rate of Increase(%) of glycogenesis” value in data set [3] (Dosage 10 μg/ml) and in data set [3] (Dosage 100 μg/ml) were 83% and 216%, respectively.
The LD50 is the dose at which mortality reaches 50%. A higher LD50 goes with a less toxic substance. Regarding `S=C(Nc1ccc(Cl)cc1)NN1CCOCC1` [N(4′-chlorophenyl) N′ morpholino thiocarbamide], the “tyrosin phosphorylation of insulin receptors” value in data set [4] is reported as “noticeable tyrosin phosphorylation of insulin receptors”. For the same molecule, the “change of body weight” value in data set [5] was “no difference in body weight”. The “% (produced nitrites; control 0, LPS 100)” value is listed as 4.81% in data set [1] (setting [10]) and −9.85% in data set [1] (setting [11]). In addition, the “Produced nitrites” value in data set [1] (setting [10]) is 3.4845 µM; in [1] (setting [11]), 3.0545 µM. For the same molecule, the blood glucose level in data set [6] is 300 to 400 mg/dL. Further, the “number of dead animals” value in data set [7] was “no mouse was dead”. The LD50 in data set [8] is more than 5000 mg/kg. Moreover, the results for the “decrease of TBARS content compared with control group” value in [2] (10 μg/ml) and in data set [2] (100 μg/ml) were 10.2% and 32%, respectively. In addition, the “increase of glycogenesis compared with control group” value in data set [3] (10 μg/ml, 24 hours, HepG2 (FIG. 3)) turned out to be 49.89%. Besides, the “blood glucose lowering effect in oral glucose tolerance test” value in [9] is on record as “remarkable blood glucose lowering effect”.
For `S=C(Nc1ccccc1)NN1CCOCC1` [phenyl (C11H15N3OS)], the “% (produced nitrites; control 0, LPS 100)” value in [1] (setting [10]) is 62.37%; in data set [1] (setting [11]), 48.93%. The “Produced nitrites” value was determined as 5.1735 µM in [1] (setting [10]) and 4.779 µM in data set [1] (setting [11]). Besides, the “Glycogenesis (absorbance)” value in data set [3] (Dosage 10 μg/ml) came to 0.301; in data set [3] (Dosage 100 μg/ml), 0.225. Also, the results for the “Rate of Increase(%) of glycogenesis” value in data set [3] (Dosage 10 μg/ml) and in data set [3] (Dosage 100 μg/ml) were 195% and 118%, respectively.
Turning to `Cc1ccccc1NC(=S)NN1CCOCC1` [2-methylphenyl], the entries for the “% (produced nitrites; control 0, LPS 100)” value in data set [1] (setting [10]) and in [1] (setting [11]) were 81.17% and 66.14%, respectively. Also, the “Produced nitrites” value in data set [1] (setting [10]) was determined as 5.3155 µM; in data set [1] (setting [11]), 5.284 µM. The “Average content of TBARS (%)” value in data set [2] (Dosage 10 μg/ml) came to 57.9%; in [2] (Dosage 100 μg/ml) it was 60.5%. For the same molecule, the “Glycogenesis (absorbance)” value in data set [3] (Dosage 10 μg/ml) was 0216; in [3] (Dosage 100 μg/ml), 0.238. The “Rate of Increase(%) of glycogenesis” value in data set [3] (Dosage 10 μg/ml) is 110%; in [3] (Dosage 100 μg/ml) it was 131%.
